In US11554171B2, “Compounds and methods for the targeted degradation of bromodomain-containing proteins” (Arvinas Operations, Inc., priority 2015, dated 2023):

Tested on: c-myc in 22RV-1 cells
Experiment: Human c-myc ELISA assay
Type: cell-based
Settings: Homo sapiens; for Emax: 22Rv1, 18 h, read-out: Degradation of BRD4: Maximum inhibition (%) c-Myc ELISA in 22RV1 cells; for DC50: 22Rv1, read-out: Degradation of BRD4: DC50 (uM) c-Myc ELISA in 22RV1 cells
Method in brief: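 22RV-1 cells treated 18 h with 8-point 1:3 compound dilutions (final top 300 nM or 1 μM, 0.1% DMSO). Cells lysed in RIPA buffer with protease/phosphatase inhibitors, and c-myc protein in cleared lysate quantified by ELISA against a standard curve. DC50 reported for c-myc suppression.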

SMILES | Emax [%] | DC50 [µM]
Cc1ncsc1-c1ccc(CNC(=O)[C@@H]2C[C@@H](O)CN2C(=O)[C@@H](NC(=O)COCCCOc2ccc(-c3ccc(NC(=O)C[C@@H]4N=C(c5ccc(Cl)cc5)c5c(sc(C)c5C)-n5c(C)nnc54)c(F)c3)nc2)C(C)(C)C)cc1 [Example 24] | 87.5 | 0.01 to 0.1
Cc1ncsc1-c1ccc([C@H](C)NC(=O)[C@@H]2C[C@@H](O)CN2C(=O)[C@@H](NC(=O)COCCOc2cccc(NC(=O)C[C@@H]3N=C(c4ccc(Cl)cc4)c4c(sc(C)c4C)-n4c(C)nnc43)c2)C(C)(C)C)cc1 [Example 124] | 98 | < 0.01
Cc1ncsc1-c1ccc([C@H](C)NC(=O)[C@@H]2C[C@@H](O)CN2C(=O)[C@@H](NC(=O)COc2ccc(OCCNC(=O)C[C@@H]3N=C(c4ccc(Cl)cc4)c4c(sc(C)c4C)-n4c(C)nnc43)nc2)C(C)(C)C)cc1 [Example 128, (2S,4R)-1-[(2S)-2-(2-{[6-(2-{2-[(9S)-7-(4-chlorophenyl)-4,5,13-trimethyl-3-thia-1,8,11,12-tetraazatricyclo[8.3.0.0^2,^6]trideca-2(6),4,7,10,12-pentaen-9-yl]acetamido}ethoxy)pyridin-3-yl]oxy}acetamido)-3,3-dimethylbutanoyl]-4-hydroxy-N-[(1S)-1-[4-(4-methyl-1,3-thiazol-5-yl)phenyl]ethyl]pyrrolidine-2-carboxamide] | 100 | < 0.01
Cc1ncsc1-c1ccc(CNC(=O)[C@@H]2C[C@@H](O)CN2C(=O)[C@@H](NC(=O)COCCCOCCCOc2ccc3c(c2)c2c(C(N)=O)cc(-c4c(C)noc4C)cc2n3Cc2ccccc2)C(C)(C)C)cc1 [Example 133, 9-benzyl-2-(dimethyl-1,2-oxazol-4-yl)-6-{3-[3-({[(2S)-1-[(2S,4R)-4-hydroxy-2-({[4-(4-methyl-1,3-thiazol-5-yl)phenyl]methyl}carbamoyl)pyrrolidin-1-yl]-3,3-dimethyl-1-oxobutan-2-yl]carbamoyl}methoxy)propoxy]propoxy}-9H-carbazole-4-carboxamide] | 98 | 0.01 to 0.1
Cc1ncsc1-c1ccc([C@H](C)NC(=O)[C@@H]2C[C@@H](OC(=O)CCN)CN2C(=O)[C@@H](NC(=O)c2cc3cc(O[C@H]4C[C@@H](NC(=O)C[C@@H]5N=C(c6ccc(Cl)cc6)c6c(sc(C)c6C)-n6c(C)nnc65)C4)ccc3o2)C(C)(C)C)cc1 [Example 339] | 97 | < 0.01
Cc1sc2c(c1C)C(c1ccc(Cl)cc1)=N[C@@H](CC(=O)N[C@H]1C[C@@H](Oc3cc(-c4cnn([C@H](C(=O)N5C[C@H](O)C[C@H]5C(=O)N[C@@H](C)c5ccc(-c6nccn6C)cc5)C(C)C)c4)ccn3)C1)c1nnc(C)n1-2 [Example 293] | 9.5 | > 1
Cc1ncsc1-c1ccc([C@H](C)NC(=O)[C@@H]2C[C@@H](O)CN2C(=O)[C@@H](NC(=O)c2cc3ccc(O[C@@H](C)CNC(=O)C[C@@H]4N=C(c5ccc(Cl)cc5)c5c(sc(C)c5C)-n5c(C)nnc54)cc3o2)C(C)(C)C)cc1 [Example 221, (2S,4R)-1-[(2S)-2-[(6-{[(2S)-1-{2-[(9S)-7-(4-chlorophenyl)-4,5,13-trimethyl-3-thia-1,8,11,12-tetraazatricyclo[8.3.0.0^2,^6]trideca-2(6),4,7,10,12-pentaen-9-yl]acetamido}propan-2-yl]oxy}-1-benzofuran-2-yl)formamido]-3,3-dimethylbutanoyl]-4-hydroxy-N-[(1S)-1-[4-(4-methyl-1,3-thiazol-5-yl)phenyl]ethyl]pyrrolidine-2-carboxamide] | 100 | < 0.01
Cc1sc2c(c1C)C(c1ccc(Cl)cc1)=N[C@@H](CC(=O)N[C@H]1C[C@@H](Oc3ccc(OCC(=O)N[C@H](C(=O)N4C[C@H](O)C[C@H]4C(=O)N[C@@H](C)c4ccc(-n5ccnc5C)cc4)C(C)(C)C)cn3)C1)c1nnc(C)n1-2 [Example 259] | 65.7 | 0.1 to 1
